Columns and labels:
[1] = target: Phosphodiesterase 3(h) (Homo sapiens, UniProt Q14432); assay: Phosphodiesterase 3(h) enzyme assay; type: biochemical; conditions: 1.0E−05 M
[2] = test system: Phosphodiesterase 1; assay: Phosphodiesterase 1 enzyme assay; type: biochemical, bovine; conditions: 1.0E−05 M
[3] = test system: K^+V channel; assay: K^+V channel binding assay; parameters: species or system rat; conditions: 1.0E−05 M
[4] = test system: M (non-selective); assay: M (non-selective) binding assay; parameters: species or system rat; conditions: 1.0E−05 M
[5] = target: T1, Phosphodiesterase 2(h) (Homo sapiens, UniProt O00408); assay: Phosphodiesterase 2(h) enzyme assay; type: biochemical; conditions: 1.0E−05 M
T1 construct: differentiated U-; endogenous in cells; host or cells: differentiated U-937 cells

[6] = target: T2, CB1(h) (Homo sapiens, UniProt P21554); assay: CB1(h) binding assay; conditions: 1.0E−05 M; read-out: % Inhibition of Control Specific Binding
T2 construct: expressed in transfected cells; host or cells: HEK-293 cells

[7] = target: CYP2D6 (Homo sapiens, UniProt P10635); assay: ADME-Tox: In vitro Metabolism (Cytochrome P450, fluorogenic substrates BFC, CEC, MFC); parameters: inhibition: dose or concentration left out as unconfirmed; conditions: human
[8] = target: CYP1A2 (Homo sapiens, UniProt P05177); assay: as above; parameters: inhibition: dose or concentration left out as unconfirmed; conditions: human
[9] = target: CYP3A4 (Homo sapiens, UniProt P08684); assay: as above; parameters: inhibition: dose or concentration left out as unconfirmed; conditions: human
[10] = target: CYP2C9 (Homo sapiens, UniProt P11712); assay: as above; parameters: inhibition: dose or concentration left out as unconfirmed; conditions: human
[11] = target: CYP2C19 (Homo sapiens, UniProt P33261); assay: as above; parameters: inhibition: dose or concentration left out as unconfirmed; conditions: human
[12] = test system: I1 (peripheral); assay: I1 (peripheral) binding assay; parameters: species or system bovine; conditions: 1.0E−05 M
[13] = test system: GABA (non-selective); type: binding, rat; conditions: 1.0E−05 M
[14] = test system: Kainate; assay: Kainate binding assay; parameters: species or system rat; conditions: 1.0E−05 M
[15] = target: T3, NE transporter(h) (Homo sapiens, UniProt P23975); assay: NE transporter(h) binding assay; conditions: read-out: % Inhibition of Control Specific Binding
T3 construct: expressed in transfected cells; host or cells: MDCK cells
T3 sequence (P23975 whole entry): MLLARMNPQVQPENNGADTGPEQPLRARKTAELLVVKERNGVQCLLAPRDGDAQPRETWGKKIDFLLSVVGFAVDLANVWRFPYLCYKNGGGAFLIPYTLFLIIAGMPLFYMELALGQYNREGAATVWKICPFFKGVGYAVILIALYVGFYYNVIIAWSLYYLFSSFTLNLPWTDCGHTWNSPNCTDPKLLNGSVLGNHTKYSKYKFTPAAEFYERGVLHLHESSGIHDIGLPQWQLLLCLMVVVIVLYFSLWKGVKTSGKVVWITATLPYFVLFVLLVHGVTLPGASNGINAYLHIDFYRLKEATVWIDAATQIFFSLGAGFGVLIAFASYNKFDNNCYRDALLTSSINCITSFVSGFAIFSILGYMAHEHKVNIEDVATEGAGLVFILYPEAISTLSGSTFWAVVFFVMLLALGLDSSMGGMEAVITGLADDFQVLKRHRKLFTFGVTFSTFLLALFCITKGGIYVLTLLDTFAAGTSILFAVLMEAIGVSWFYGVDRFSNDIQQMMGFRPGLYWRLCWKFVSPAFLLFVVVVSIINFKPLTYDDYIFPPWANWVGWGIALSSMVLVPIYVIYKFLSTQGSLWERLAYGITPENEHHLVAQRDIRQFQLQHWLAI

T1 sequence (O00408 whole entry): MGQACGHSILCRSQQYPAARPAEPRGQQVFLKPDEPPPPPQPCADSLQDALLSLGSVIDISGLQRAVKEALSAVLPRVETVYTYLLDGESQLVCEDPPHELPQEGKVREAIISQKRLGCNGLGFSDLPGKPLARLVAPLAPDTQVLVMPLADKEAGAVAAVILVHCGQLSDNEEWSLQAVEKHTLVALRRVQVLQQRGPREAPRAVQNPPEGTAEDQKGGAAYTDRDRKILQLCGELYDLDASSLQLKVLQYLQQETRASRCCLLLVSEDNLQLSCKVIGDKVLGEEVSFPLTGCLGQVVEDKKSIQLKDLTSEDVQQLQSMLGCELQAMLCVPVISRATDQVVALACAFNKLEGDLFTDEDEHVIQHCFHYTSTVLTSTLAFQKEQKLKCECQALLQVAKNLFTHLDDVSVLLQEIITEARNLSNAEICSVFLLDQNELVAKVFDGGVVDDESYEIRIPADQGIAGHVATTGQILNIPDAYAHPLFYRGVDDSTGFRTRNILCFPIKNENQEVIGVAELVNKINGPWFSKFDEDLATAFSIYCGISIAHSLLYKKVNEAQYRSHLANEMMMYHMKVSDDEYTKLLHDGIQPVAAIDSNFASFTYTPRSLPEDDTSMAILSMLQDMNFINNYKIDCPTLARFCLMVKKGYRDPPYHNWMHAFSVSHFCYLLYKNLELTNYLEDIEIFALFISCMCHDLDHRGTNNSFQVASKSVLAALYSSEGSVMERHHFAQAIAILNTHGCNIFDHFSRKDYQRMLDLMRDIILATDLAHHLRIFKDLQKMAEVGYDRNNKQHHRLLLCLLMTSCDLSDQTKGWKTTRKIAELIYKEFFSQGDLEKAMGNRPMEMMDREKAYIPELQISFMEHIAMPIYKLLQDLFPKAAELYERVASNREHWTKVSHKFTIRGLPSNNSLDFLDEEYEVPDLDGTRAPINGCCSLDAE
T2 sequence (P21554 whole entry): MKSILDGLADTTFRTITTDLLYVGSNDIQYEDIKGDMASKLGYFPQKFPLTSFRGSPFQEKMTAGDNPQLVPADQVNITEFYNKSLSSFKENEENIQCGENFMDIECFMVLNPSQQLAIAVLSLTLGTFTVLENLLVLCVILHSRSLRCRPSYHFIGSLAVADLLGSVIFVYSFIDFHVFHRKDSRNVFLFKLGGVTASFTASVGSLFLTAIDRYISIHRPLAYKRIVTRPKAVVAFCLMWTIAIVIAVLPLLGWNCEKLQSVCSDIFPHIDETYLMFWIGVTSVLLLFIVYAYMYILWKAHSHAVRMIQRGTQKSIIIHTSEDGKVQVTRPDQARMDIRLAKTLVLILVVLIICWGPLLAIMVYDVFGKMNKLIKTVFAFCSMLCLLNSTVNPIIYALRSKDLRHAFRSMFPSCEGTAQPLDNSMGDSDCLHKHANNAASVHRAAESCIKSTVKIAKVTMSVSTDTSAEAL
CYP2C9, sequence (P11712 whole entry): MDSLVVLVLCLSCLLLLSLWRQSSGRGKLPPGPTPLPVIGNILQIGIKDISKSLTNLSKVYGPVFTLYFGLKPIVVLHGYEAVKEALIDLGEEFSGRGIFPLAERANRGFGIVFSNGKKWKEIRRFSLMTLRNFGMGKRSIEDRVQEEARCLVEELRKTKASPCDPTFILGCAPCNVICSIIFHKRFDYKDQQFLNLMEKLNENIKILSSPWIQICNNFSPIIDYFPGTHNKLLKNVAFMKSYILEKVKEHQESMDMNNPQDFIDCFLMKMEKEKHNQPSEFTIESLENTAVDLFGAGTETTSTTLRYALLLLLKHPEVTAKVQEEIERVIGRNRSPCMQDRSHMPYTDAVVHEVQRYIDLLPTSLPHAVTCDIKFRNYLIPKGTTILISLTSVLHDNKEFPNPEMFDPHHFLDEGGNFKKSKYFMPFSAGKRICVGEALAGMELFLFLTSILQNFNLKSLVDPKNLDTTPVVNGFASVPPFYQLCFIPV
Phosphodiesterase 3(h), sequence (Q14432 674-1093 limits assumed): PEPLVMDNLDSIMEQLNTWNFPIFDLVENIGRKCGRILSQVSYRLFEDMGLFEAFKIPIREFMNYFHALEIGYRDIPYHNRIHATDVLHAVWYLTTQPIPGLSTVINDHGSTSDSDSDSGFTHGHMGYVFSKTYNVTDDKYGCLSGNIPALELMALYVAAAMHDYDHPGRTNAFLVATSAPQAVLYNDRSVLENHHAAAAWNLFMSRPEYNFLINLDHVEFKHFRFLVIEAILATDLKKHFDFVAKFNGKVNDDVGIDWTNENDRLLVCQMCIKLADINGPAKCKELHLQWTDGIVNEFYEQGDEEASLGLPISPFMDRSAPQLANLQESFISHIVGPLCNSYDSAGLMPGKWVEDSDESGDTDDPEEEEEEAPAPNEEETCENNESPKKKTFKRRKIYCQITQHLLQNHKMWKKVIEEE
CYP2C19, sequence (P33261 whole entry): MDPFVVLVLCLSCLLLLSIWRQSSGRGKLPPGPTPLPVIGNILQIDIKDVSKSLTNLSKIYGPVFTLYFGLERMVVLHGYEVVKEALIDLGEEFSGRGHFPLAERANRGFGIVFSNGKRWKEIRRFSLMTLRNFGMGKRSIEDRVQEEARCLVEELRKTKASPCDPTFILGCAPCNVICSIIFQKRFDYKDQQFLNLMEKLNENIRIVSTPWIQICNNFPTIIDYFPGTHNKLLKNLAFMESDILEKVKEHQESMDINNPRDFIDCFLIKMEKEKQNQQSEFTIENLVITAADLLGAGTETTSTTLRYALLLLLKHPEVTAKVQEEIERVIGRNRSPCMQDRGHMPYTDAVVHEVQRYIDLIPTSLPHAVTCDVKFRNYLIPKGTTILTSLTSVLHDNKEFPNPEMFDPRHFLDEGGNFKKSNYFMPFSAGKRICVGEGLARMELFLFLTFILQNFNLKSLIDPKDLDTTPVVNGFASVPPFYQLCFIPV
CYP2D6, sequence (P10635 whole entry): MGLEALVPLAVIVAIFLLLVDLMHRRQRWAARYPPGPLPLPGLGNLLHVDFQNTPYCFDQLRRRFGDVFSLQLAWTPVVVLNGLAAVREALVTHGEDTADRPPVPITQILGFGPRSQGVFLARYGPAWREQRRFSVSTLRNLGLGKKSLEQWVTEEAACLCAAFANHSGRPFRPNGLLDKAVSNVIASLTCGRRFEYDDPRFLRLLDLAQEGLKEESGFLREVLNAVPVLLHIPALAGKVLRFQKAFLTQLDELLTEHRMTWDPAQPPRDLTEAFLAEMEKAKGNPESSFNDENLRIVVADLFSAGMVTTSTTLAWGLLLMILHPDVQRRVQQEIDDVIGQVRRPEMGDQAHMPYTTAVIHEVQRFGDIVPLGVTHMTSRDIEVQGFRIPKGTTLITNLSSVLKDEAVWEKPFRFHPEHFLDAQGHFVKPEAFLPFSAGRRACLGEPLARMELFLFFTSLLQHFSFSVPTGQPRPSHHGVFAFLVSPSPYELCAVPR
CYP1A2, sequence (P05177 whole entry): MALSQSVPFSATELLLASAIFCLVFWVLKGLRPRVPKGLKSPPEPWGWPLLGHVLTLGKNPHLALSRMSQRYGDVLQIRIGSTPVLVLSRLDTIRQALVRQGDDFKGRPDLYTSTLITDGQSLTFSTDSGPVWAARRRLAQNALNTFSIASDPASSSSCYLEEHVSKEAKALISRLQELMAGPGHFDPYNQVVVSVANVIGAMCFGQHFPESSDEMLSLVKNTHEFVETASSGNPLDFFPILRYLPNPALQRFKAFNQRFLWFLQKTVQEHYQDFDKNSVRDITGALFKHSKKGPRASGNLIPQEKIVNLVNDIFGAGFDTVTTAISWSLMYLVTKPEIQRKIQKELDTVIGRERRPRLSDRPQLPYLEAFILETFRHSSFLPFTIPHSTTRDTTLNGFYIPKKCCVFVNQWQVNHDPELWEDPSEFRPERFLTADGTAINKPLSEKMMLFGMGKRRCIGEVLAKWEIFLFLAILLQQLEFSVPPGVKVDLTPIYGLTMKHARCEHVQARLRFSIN
CYP3A4, sequence (P08684 whole entry): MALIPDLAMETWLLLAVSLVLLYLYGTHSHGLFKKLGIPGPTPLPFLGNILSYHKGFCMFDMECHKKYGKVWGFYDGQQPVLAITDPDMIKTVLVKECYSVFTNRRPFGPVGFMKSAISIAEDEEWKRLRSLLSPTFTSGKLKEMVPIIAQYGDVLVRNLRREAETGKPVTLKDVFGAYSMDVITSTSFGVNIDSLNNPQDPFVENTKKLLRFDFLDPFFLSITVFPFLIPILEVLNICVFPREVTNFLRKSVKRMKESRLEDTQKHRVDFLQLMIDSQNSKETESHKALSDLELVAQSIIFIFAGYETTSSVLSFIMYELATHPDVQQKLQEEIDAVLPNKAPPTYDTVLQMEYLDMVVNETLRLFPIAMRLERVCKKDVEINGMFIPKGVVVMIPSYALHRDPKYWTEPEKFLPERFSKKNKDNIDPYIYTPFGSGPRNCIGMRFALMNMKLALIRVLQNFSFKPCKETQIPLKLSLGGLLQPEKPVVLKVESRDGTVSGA

## N#Cc1ccc2c(ccn2CCCCCB(O)O)c1 [Example 20, 5-(5-cyano-1H-indol-1-yl)pentylboronic acid]
[1]
  % Inhibition of Control Values: 95%
[2]
  % Inhibition of Control Values: 7%
[3]
  % Inhibition of Control Specific Binding: −5%
[4]
  % Inhibition of Control Specific Binding: −4%
[5]
  % Inhibition of Control Values: 95%
[6]
  inhibition at 10 µM: -2%
[7]
  inhibition: 42%
[8]
  inhibition: 40%
[9]
  inhibition: 97%
[10]
  inhibition: 73%
[11]
  inhibition: 52%
[12]
  % Inhibition of Control Specific Binding: −6%
[13]
  % Inhibition of Control Specific Binding: −15%
[14]
  % Inhibition of Control Specific Binding: −6%
[15]
  inhibition at 10 µM: 15%
